# Assay results from PMC3548936 (ACS chemical biology, 2012).
# Experiments:
# [1] = test system: VSV-G pseudotyped HIV particles (WT); experiment: microbe, parasite or virus in culture; assay type: cell-based, HIV-1; settings: Human immunodeficiency virus 1, HOS, read-out: Antiviral IC50 ± SD (EC50), WT
# [2] = test system: VSV-G pseudotyped HIV particles (IN Y143R); assay type: cell-based, HIV-1; settings: read-out: Antiviral IC50 ± SD (EC50), Y143R
# [3] = in vitro; settings: human
compound,measurement,setting,value
"Cc1nnc(C(=O)NC(C)(C)c2nc(C(=O)NCc3ccc(F)cc3)c(O)c(=O)n2C)o1 [RAL, raltegravir]",EC50,[1],0.004 ± 0.002 µM
same,EC50,[2],0.21 ± 0.01 µM
same,CC50,[3],> 100 µM
